Laboratory results: patent US20200138827A1, “SMALL MOLECULE MODULATORS OF HUMAN STING” (Curadev Pharma Limited, priority 2017, published 2020)

molecular target: T1, WT/R232 STING protein (Homo sapiens, UniProt Q86WV6, H232R); experiment: Luciferase reporter assay in HEK293T-hSTING-Luciferase cells, WT/R232; format: cell-based; conditions: 20 hr stimulation, read-out: R232 Activity (EC50 range)
T1 construct: host or cells: HEK293T
Summary of the method: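 Clonal HEK293T cells stably expressing human STING R232 plus an ISRE/ISG54-driven luciferase reporter, 5×10^5 per well, stimulated with compounds for 20 h. Secreted luciferase in supernatant measured by luminescence; […].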

T1 sequence (Q86WV6 whole entry H232R): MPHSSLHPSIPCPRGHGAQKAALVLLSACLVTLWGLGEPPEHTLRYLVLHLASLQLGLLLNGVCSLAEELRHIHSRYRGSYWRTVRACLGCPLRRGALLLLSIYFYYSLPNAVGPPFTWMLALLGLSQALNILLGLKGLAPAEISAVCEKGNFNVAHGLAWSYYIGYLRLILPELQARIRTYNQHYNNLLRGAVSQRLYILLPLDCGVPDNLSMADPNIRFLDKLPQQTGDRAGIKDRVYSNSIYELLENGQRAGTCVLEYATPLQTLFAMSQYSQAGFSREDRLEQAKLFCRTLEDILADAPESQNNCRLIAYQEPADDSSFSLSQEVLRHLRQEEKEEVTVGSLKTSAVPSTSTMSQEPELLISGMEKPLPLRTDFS

Row | Compound | EC50
1 | O=C(NC(Cc1ccccc1)c1ccccc1)c1ccc2c(c1)N(Cc1ccccc1)C(=O)CS2 (centres unmarked) [Example 79, 4-benzyl-N-(1,2-diphenylethyl)-3-oxo-3,4-dihydro-2H-benzo[b-1,4]thiazine-6-carboxamide] | > 10 µM
2 | O=C(NCc1ccco1)c1ccc2c(c1)N(Cc1cccc(Cl)c1Cl)C(=O)CS2 [Example 11, 4-(2,3-dichloro-benzyl)-N-(furan-2-ylmethyl)-3-oxo-3,4-dihydro-2H-benzo[b-1,4]thiazine-6-carboxamide] | 1 to 10 µM
3 | O=C(CN1C(=O)CSc2ccc(C(=O)NCc3ccco3)cc21)Nc1ccccc1 [Example 5, N-(furan-2-ylmethyl)-3-oxo-4-(2-oxo-2-(phenylamino)ethyl)-3,4-dihydro-2H-benzo[b-1,4]thiazine-6-carboxamide] | > 10 µM
4 | Cn1nccc1CNC(=O)c1ccc2c(c1)N(Cc1ccccc1)C(=O)CS2 [Example 67, 4-benzyl-N-((1-methyl-1H-pyrazol-5-yl)methyl)-3-oxo-3,4-dihydro-2H-benzo[b-1,4]thiazine-6-carboxamide] | > 10 µM
5 | O=C(NCc1ccco1)c1ccc2c(c1)N(Cc1ccccc1)C(=O)CS2 [Example 111, 4-benzyl-N-(furan-2-ylmethyl)-3-oxo-3,4-dihydro-2H-benzo[b-1,4]thiazine-6-carboxamide] | > 10 µM
6 | O=C(NCc1ccco1)c1ccc2c(c1)N(C(=O)c1ccccc1F)CCO2 [Example 263, 4-(2-fluorobenzoyl)-N-(furan-2-ylmethyl)-3,4-dihydro-2H-benzo[b-1,4]oxazine-6-carboxamide] | > 10 µM
7 | Cc1cccc(CN2C(=O)CSc3ccc(C(=O)NCc4ccco4)cc32)c1C [Example 12, 4-(2,3-dimethyl-benzyl)-N-(furan-2-ylmethyl)-3-oxo-3,4-dihydro-2H-benzo[b-1,4]thiazine-6-caroxamide] | 1 to 10 µM
8 | O=C(NCc1ccoc1)c1ccc2c(c1)N(Cc1ccccc1)C(=O)CS2 [Example 50, 4-benzyl-N-(furan-3-ylmethyl)-3-oxo-3,4-dihydro-2H-benzo[b-1,4]thiazine-6-carboxamide] | > 10 µM
9 | O=C(NCc1ccco1)c1ccc2c(c1)N(Cc1c(F)cccc1Cl)C(=O)CO2 [Example 231, 4-(2-Chloro-6-fluorobenzyl)-N-(furan-2-ylmethyl)-3-oxo-3,4-dihydro-2H-benzo[b-1,4]oxazine-6-carboxamide] | > 10 µM
10 | O=C(NCc1ccco1)c1cc(Br)c2c(c1)N(Cc1ccccc1F)C(=O)CS2 [Example 221, 8-bromo-4-(2-fluorobenzyl)-N-(furan-2-ylmethyl)-3-oxo-3,4-dihydro-2H-benzo[b-1,4]thiazine-6-carboxamide] | > 10 µM
11 | N#CCN(Cc1ccccc1)C(=O)c1ccc2c(c1)N(Cc1ccccc1)C(=O)CS2 [Example 56, N,4-dibenzyl-N-(cyanomethyl)-3-oxo-3,4-dihydro-2H-benzo[b-1,4]thiazine-6-carboxamide] | > 10 µM
12 | N#Cc1ccc(CNC(=O)c2ccc3c(c2)N(Cc2ccccc2)C(=O)CS3)cc1 [Example 71, 4-benzyl-N-(4-cyanobenzyl)-3-oxo-3,4-dihydro-2H-benzo[b-1,4]thiazine-6-carboxamide] | 1 to 10 µM
13 | Cc1cccc(CNC(=O)c2ccc3c(n2)N(Cc2c(F)cccc2Cl)C(=O)C(C)S3)c1 (centres unmarked) [Example 184, 4-(2-chloro-6-fluorobenzyl)-2-methyl-N-(3-methylbenzyl)-3-oxo-3,4-dihydro-2H-pyrido[3,2-b-1,4]thiazine-6-carboxamide] | > 10 µM
14 | N#Cc1cc(C(=O)NCc2ccco2)cc2c1SCC(=O)N2Cc1ccccc1 [Example 219, 4-Benzyl-8-cyano-N-(furan-2-ylmethyl)-3-oxo-3,4-dihydro-2H-benzo[b-1,4]thiazine-6-carboxamide] | > 10 µM
15 | O=C(NCc1ccco1)c1ccc2c(c1)N(CC1CCCCC1)C(=O)CS2 [Example 15, 4-(cyclohexyl-methyl)-N-(furan-2-ylmethyl)-3-oxo-3,4-dihydro-2H-benzo[b-1,4]thiazine-6-carboxamide] | > 10 µM
16 | O=C(NCc1cccc(-c2ccccc2)c1)c1ccc2c(c1)N(Cc1c(F)cccc1Cl)C(=O)CS2 [Example 47, N-([1,1′-biphenyl]-3-ylmethyl)-4-(2-chloro-6-fluorobenzyl)-3-oxo-3,4-dihydro-2H-benzo[b][1,4] thiazine-6-carboxamide] | > 10 µM
17 | O=C(NC1(c2ccccc2)CCCC1)c1ccc2c(c1)N(Cc1ccccc1)C(=O)CS2 [Example 75, 4-benzyl-3-oxo-N-(1-phenylcyclopentyl)-3,4-dihydro-2H-benzo[b-1,4]thiazine-6-carboxamide] | > 10 µM
18 | O=C(NCc1n[nH]c(=O)c2ccccc12)c1ccc2c(c1)N(Cc1ccccc1)C(=O)CS2 [Example 51, 4-benzyl-3-oxo-N-((4-oxo-3,4-dihydrophthalazin-1-yl)methyl)-3,4-dihydro-2H-benzo[b-1,4]thiazine-6-carboxamide] | > 10 µM
19 | O=C(NCC1CCCCC1)c1cnc2c(c1)N(Cc1c(F)cccc1Cl)C(=O)CS2 [Example 179, 1-(2-chloro-6-fluorobenzyl)-N-(cyclohexyl-methyl)-2-oxo-2,3-dihydro-1H-pyrido[2,3-b-1,4]thiazine-7-carboxamide] | > 10 µM
20 | Nc1ncc(NC(=O)CN2C(=O)CSc3ccc(C(=O)NCc4ccco4)cc32)cn1 [Example 9, 4-(2-((2-amino-pyrimidin-5-yl)amino)-2-oxoethyl)-N-(furan-2-ylmethyl)-3-oxo-3,4-dihydro-2H-benzo[b-1,4]thiazine-6-carboxamide] | > 10 µM

Other lines, results leading:

Row | EC50 | Compound
21 | 1 to 10 µM | O=C(NCc1c(F)cc(F)cc1F)c1ccc2c(c1)N(S(=O)(=O)c1ccccc1)CCS2 [Example 261, 4-(Phenylsulfonyl)-N-(2,4,6-trifluorobenzyl)-3,4-dihydro-2H-benzo[b-1,4]thiazine-6-carboxamide]
22 | > 10 µM | Cc1cnc(CNC(=O)c2ccc3c(c2)N(Cc2ccccc2)C(=O)CS3)s1 [Example 64, 4-benzyl-N-((5-methylthiazol-2-yl)methyl)-3-oxo-3,4-dihydro-2H-benzo[b-1,4]thiazine-6-carboxamide]
23 | > 10 µM | O=C(NCc1ncco1)c1ccc2c(c1)N(Cc1ccccc1)C(=O)CS2 [Example 59, 4-benzyl-N-(oxazol-2-ylmethyl)-3-oxo-3,4-dihydro-2H-benzo[b-1,4]thiazine-6-carboxamide]
24 | 1 to 10 µM | CC1Oc2ncc(C(=O)NCc3c(F)cc(F)cc3F)cc2N(Cc2cc(F)cc(F)c2)C1=O (centres unmarked) [Example 240, 1-(3,5-difluorobenzyl)-3-methyl-2-oxo-N-(2,4,6-trifluorobenzyl)-2,3-dihydro-1H-pyrido[2,3-b-1,4]oxazine-7-carboxamide]
25 | 1 to 10 µM | Cc1ccc(CNC(=O)c2cnc3c(c2)N(Cc2c(F)cccc2Cl)C(=O)CS3)o1 [Example 207, 1-(2-chloro-6-fluorobenzyl)-N-((5-methylfuran-2-yl)methyl)-2-oxo-2,3-dihydro-1H-pyrido [2,3-b][1,4] thiazine-7-carboxamide]
26 | > 10 µM | CC1Sc2ccc(C(=O)NCCc3c(F)cc(F)cc3F)nc2N(Cc2cc(F)cc(F)c2)C1=O (centres unmarked) [Example 174, 4-(3,5-difluorobenzyl)-2-methyl-3-oxo-N-(2,4,6-trifluoro-phenethyl)-3,4-dihydro-2H-pyrido[3,2-b][1,4]thiazine-6-carboxamide]
27 | 1 to 10 µM | O=C(NCc1c(F)cc(F)cc1F)c1ccc2c(n1)N(Cc1cc(F)cc(F)c1)C(=O)CC2 [Example 283, (3,5-difluorobenzyl)-7-oxo-N-(2,4,6-trifluorobenzyl)-5,6,7,8-tetrahydro-1,8-naphthyridine-2-carboxamide]
28 | > 10 µM | O=C(NCc1cc2ccncc2o1)c1ccc2c(c1)N(Cc1cc(F)cc(F)c1)C(=O)CC2 [Example 272, 1-(3,5-difluorobenzyl)-N-(furo[2,3-c]pyridin-2-ylmethyl)-2-oxo-1,2,3,4-tetrahydroquinoline-7-carboxamide]
29 | 1 to 10 µM | CC1Sc2ccc(C(=O)NCc3c(F)cc(F)cc3F)nc2N(Cc2c(F)cccc2Cl)C1=O (centres unmarked) [Example 186, 4-(2-chloro-6-fluorobenzyl)-2-methyl-3-oxo-N-(2,4,6-trifluorobenzyl)-3,4-dihydro-2H-pyrido[3,2-b-1,4]thiazine-6-carboxamide]
30 | > 10 µM | Cc1ccc(CNC(=O)c2ccc3c(c2)N(Cc2c(F)cccc2Cl)C(=O)CS3)cn1 [Example 36, 4-(2-chloro-6-fluorobenzyl)-N-((6-methyl-pyridin-3-yl)methyl)-3-oxo-3,4-dihydro-2H-benzo[b-1,4]thiazine-6-carboxamide]
31 | > 10 µM | CC1Sc2ncc(C(=O)NCc3cnccn3)cc2N(Cc2cc(F)cc(F)c2)C1=O (centres unmarked) [Example 217, 1-(3,5-difluorobenzyl)-3-methyl oxo-N-(pyrazin-2-ylmethyl)-2,3 dihydro-1H-pyrido[2,3-b][1,4]thiazine-7-carboxamide]
32 | > 10 µM | CC1Sc2ncc(C(=O)NCc3cc4ccccc4o3)cc2N(Cc2cc(F)cc(F)c2)C1=O (centres unmarked) [Example 208, N-(benzofuran-2-ylmethyl)-1-(3,5-difluorobenzyl)-3-methyl-2-oxo-2,3-dihydro-1H-pyrido[2,3-b][1,4] thiazine-7-carboxamide]
33 | > 10 µM | O=C(NCc1c(F)cc(F)cc1F)c1ccc2c(c1)N(C(C(=O)O)c1ccccc1)C(=O)CS2 (centres unmarked) [Example 113, 2-(3-oxo-6-((2,4,6-trifluorobenzyl)carbamoyl)-2H-benzo[b][1,4]thiazin-4(3H)-yl)-2-phenylacetic acid]
34 | > 10 µM | CS(=O)(=O)NCCC1Sc2ccc(C(=O)NCc3c(F)cc(F)cc3F)cc2N(Cc2cc(F)cc(F)c2)C1=O (centres unmarked) [Example 170, 4-(3,5-difluorobenzyl)-2-(2-(methyl-sulfonamido)ethyl)-3-oxo-N-(2,4,6-trifluorobenzyl)-3,4-dihydro-2H-benzo[b] [1,4]thiazine-6-carboxamide]
35 | > 10 µM | O=C(NCc1ccco1)c1cnc2c(c1)N(Cc1ccccc1)C(=O)CS2 [Example 180, 1-benzyl-N-(furan-2-ylmethyl)-2-oxo-2,3-dihydro-1H-pyrido[2,3-b-1,4]thiazine-7-carboxamide]
